Laboratory results published in patent publication US20230111310A1, “CARBOXYLIC ACID DERIVATIVE-SUBSTITUTED IMINO ARYL COMPOUND, PREPARATION METHOD THEREFOR, HERBICIDAL COMPOSITION AND USE THEREOF” (Qingdao Kingagroot Chemical Compound Co., Ltd., priority 2020, published 2023).

Key:
Assay in all cases: Weeding effect in post-emergence stage
Format in all cases: in vivo
Conditions in all cases: Dose 15 g/ha; level of fresh weight growth control rate
Abutilon theophrasti = test system: Abutilon theophrasti
How it was run: (§1)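 Doses of 500, 250, 125, 60, 30, 15 and 7.5 g/ha, with methyl oleate synergist (1.5 liter/ha) and Tween 80 from acetone solution, applied by spray tower post-emergence (2–3 leaf stage). Weed control scored after 3 further greenhouse weeks, averaged over triplicates.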

Alopecurus japonicus = test system: Alopecurus japonicus
How it was run: as §1

Digitaria sanguinalis = test system: Digitaria sanguinalis
How it was run: as §1

Eleusine indica = test system: Eleusine indica
How it was run: as §1

Setaria viridis = test system: Setaria viridis
How it was run: as §1

Echinochloa crusgalli = test system: Echinochloa crusgalli
How it was run: as §1

Row | Structure (SMILES) | Weeding effect in post-emergence stage, Abutilon theophrasti (Abutilon theophrasti) | Weeding effect in post-emergence stage, Alopecurus japonicus (Alopecurus japonicus) | Weeding effect in post-emergence stage, Digitaria sanguinalis (Digitaria sanguinalis) | Weeding effect in post-emergence stage, Eleusine indica (Eleusine indica) | Weeding effect in post-emergence stage, Setaria viridis (Setaria viridis) | Weeding effect in post-emergence stage, Echinochloa crusgalli (Echinochloa crusgalli)
1 | COC(=O)CCNC(=O)[C@@H](C)O/N=C/c1cc(-n2c(=O)n(C)c(=S)n(C)c2=O)c(F)cc1Cl [183(R)] | 5 (Level 5: growth control rate is above 85%) | 5 (Level 5: growth control rate is above 85%) | 5 (Level 5: growth control rate is above 85%) | 5 (Level 5: growth control rate is above 85%) | 5 (Level 5: growth control rate is above 85%) | 5 (Level 5: growth control rate is above 85%)
2 | C[C@@H](O/N=C/c1cc(-n2c(=O)cc(C(F)(F)F)n(C)c2=O)c(F)cc1Cl)C(=O)O [193(R)] | 5 (Level 5: growth control rate is above 85%) | 5 (Level 5: growth control rate is above 85%) | 5 (Level 5: growth control rate is above 85%) | 5 (Level 5: growth control rate is above 85%) | 5 (Level 5: growth control rate is above 85%) | 5 (Level 5: growth control rate is above 85%)
3 | CCCCOC(=O)[C@@H](C)O/N=C/c1cc(-n2c(=O)cc(C(F)(F)F)n(C)c2=O)c(F)cc1Cl [200(R)] | 5 (Level 5: growth control rate is above 85%) | 5 (Level 5: growth control rate is above 85%) | 5 (Level 5: growth control rate is above 85%) | 5 (Level 5: growth control rate is above 85%) | 5 (Level 5: growth control rate is above 85%) | 5 (Level 5: growth control rate is above 85%)
4 | CC(C)COC(=O)[C@@H](C)O/N=C/c1cc(-n2c(=O)cc(C(F)(F)F)n(C)c2=O)c(F)cc1Cl [201(R)] | 5 (Level 5: growth control rate is above 85%) | 5 (Level 5: growth control rate is above 85%) | 5 (Level 5: growth control rate is above 85%) | 5 (Level 5: growth control rate is above 85%) | 5 (Level 5: growth control rate is above 85%) | 5 (Level 5: growth control rate is above 85%)
5 | C[C@@H](O/N=C/c1cc(-n2c(=O)cc(C(F)(F)F)n(C)c2=O)c(F)cc1Cl)C(=O)OC(C)(C)C [202(R)] | 5 (Level 5: growth control rate is above 85%) | 5 (Level 5: growth control rate is above 85%) | 5 (Level 5: growth control rate is above 85%) | 5 (Level 5: growth control rate is above 85%) | 5 (Level 5: growth control rate is above 85%) | 5 (Level 5: growth control rate is above 85%)
6 | CCCCCOC(=O)[C@@H](C)O/N=C/c1cc(-n2c(=O)cc(C(F)(F)F)n(C)c2=O)c(F)cc1Cl [203(R)] | 5 (Level 5: growth control rate is above 85%) | 5 (Level 5: growth control rate is above 85%) | 5 (Level 5: growth control rate is above 85%) | 5 (Level 5: growth control rate is above 85%) | 5 (Level 5: growth control rate is above 85%) | 5 (Level 5: growth control rate is above 85%)
7 | CCCCCCOC(=O)[C@@H](C)O/N=C/c1cc(-n2c(=O)cc(C(F)(F)F)n(C)c2=O)c(F)cc1Cl [204(R)] | 5 (Level 5: growth control rate is above 85%) | 5 (Level 5: growth control rate is above 85%) | 5 (Level 5: growth control rate is above 85%) | 5 (Level 5: growth control rate is above 85%) | 5 (Level 5: growth control rate is above 85%) | 5 (Level 5: growth control rate is above 85%)
8 | CCCCCCCOC(=O)[C@@H](C)O/N=C/c1cc(-n2c(=O)cc(C(F)(F)F)n(C)c2=O)c(F)cc1Cl [205(R)] | 5 (Level 5: growth control rate is above 85%) | 5 (Level 5: growth control rate is above 85%) | 5 (Level 5: growth control rate is above 85%) | 5 (Level 5: growth control rate is above 85%) | 5 (Level 5: growth control rate is above 85%) | 5 (Level 5: growth control rate is above 85%)
9 | CCCCCCCCOC(=O)[C@@H](C)O/N=C/c1cc(-n2c(=O)cc(C(F)(F)F)n(C)c2=O)c(F)cc1Cl [206(R)] | 5 (Level 5: growth control rate is above 85%) | 5 (Level 5: growth control rate is above 85%) | 5 (Level 5: growth control rate is above 85%) | 5 (Level 5: growth control rate is above 85%) | 5 (Level 5: growth control rate is above 85%) | 5 (Level 5: growth control rate is above 85%)
10 | CCCCCCC(C)OC(=O)[C@@H](C)O/N=C/c1cc(-n2c(=O)cc(C(F)(F)F)n(C)c2=O)c(F)cc1Cl (stereo partly drawn) [207(R)] | 5 (Level 5: growth control rate is above 85%) | 5 (Level 5: growth control rate is above 85%) | 5 (Level 5: growth control rate is above 85%) | 5 (Level 5: growth control rate is above 85%) | 5 (Level 5: growth control rate is above 85%) | 5 (Level 5: growth control rate is above 85%)
11 | C=CCCOC(=O)[C@@H](C)O/N=C/c1cc(-n2c(=O)cc(C(F)(F)F)n(C)c2=O)c(F)cc1Cl [209(R)] | 5 (Level 5: growth control rate is above 85%) | 5 (Level 5: growth control rate is above 85%) | 5 (Level 5: growth control rate is above 85%) | 5 (Level 5: growth control rate is above 85%) | 5 (Level 5: growth control rate is above 85%) | 5 (Level 5: growth control rate is above 85%)
12 | C[C@@H](O/N=C/c1cc(-n2c(=O)cc(C(F)(F)F)n(C)c2=O)c(F)cc1Cl)C(=O)OC1CCCC1 [214(R)] | 5 (Level 5: growth control rate is above 85%) | 5 (Level 5: growth control rate is above 85%) | 5 (Level 5: growth control rate is above 85%) | 5 (Level 5: growth control rate is above 85%) | 5 (Level 5: growth control rate is above 85%) | 5 (Level 5: growth control rate is above 85%)
13 | C[C@@H](O/N=C/c1cc(-n2c(=O)cc(C(F)(F)F)n(C)c2=O)c(F)cc1Cl)C(=O)OCC(F)F [217(R)] | 5 (Level 5: growth control rate is above 85%) | 5 (Level 5: growth control rate is above 85%) | 5 (Level 5: growth control rate is above 85%) | 5 (Level 5: growth control rate is above 85%) | 5 (Level 5: growth control rate is above 85%) | 5 (Level 5: growth control rate is above 85%)
14 | C[C@@H](O/N=C/c1cc(-n2c(=O)cc(C(F)(F)F)n(C)c2=O)c(F)cc1Cl)C(=O)OCC(C)(F)F [220(R)] | 5 (Level 5: growth control rate is above 85%) | 5 (Level 5: growth control rate is above 85%) | 5 (Level 5: growth control rate is above 85%) | 5 (Level 5: growth control rate is above 85%) | 5 (Level 5: growth control rate is above 85%) | 5 (Level 5: growth control rate is above 85%)
15 | C[C@@H](O/N=C/c1cc(-n2c(=O)cc(C(F)(F)F)n(C)c2=O)c(F)cc1Cl)C(=O)OCCC(F)(F)F [221(R)] | 5 (Level 5: growth control rate is above 85%) | 5 (Level 5: growth control rate is above 85%) | 5 (Level 5: growth control rate is above 85%) | 5 (Level 5: growth control rate is above 85%) | 5 (Level 5: growth control rate is above 85%) | 5 (Level 5: growth control rate is above 85%)
